Measurements taken from patent US7494821B2, “Fluorescein based sensors for tracking nitric oxide in live cells” (Massachusetts Institute of Technology, priority 2005, dated 2009).

Experiments:
[1] = tested on: mixture of Raw 264.7 and SK-N-SH cells; experiment: NO imaging in Raw 264.7 and SK-N-SH co-culture; assay type: cell-based; conditions: 17β-estradiol (100 nM) and Cu(FL5) (1 μM) for 10 min
Procedure: FIG. 9 illustrates NO detection in SK-N-SH and Raw 264.7 cells by Cu(FL5). Cells were treated with Cu(FL5) (1 μM) and 17β-estradiol (500 nM) for 10 min. The media were subsequently removed and the cells washed with PBS. Images were taken with a Nikon Eclipse TS100 microscope.
The fluorescence response was also monitored in a mixture of Raw 264.7 and SK-N-SH cells grown on the same plate and co-treated with 17β-estradiol (100 nM) and Cu(FL5) (1 μM) for 10 min.

HeLa cells = experiment: Control imaging in HeLa cells; assay type: cell-based
Procedure: We investigated the ability of Cu(FL5) to detect NO produced in SK-N-SH human neuroblastoma cells under physiological conditions, since constitutive NO synthase (“cNOS”) in this cell line can be activated by estrogen to produce NO. Estrogen administration leads to an increase in the cytosolic Ca(II) concentration that alters the structure of calmodulin, which in turn activates cNOS. The NO-dependent fluorescence response, monitored after simultaneous administration of 17β-estradiol (100 nM) and Cu(FL5) (1 μM) to the cells, was completed within 5 min with a 4.0±0.6-fold increase in fluorescence (FIGS. 5a and b). […] As another control, HeLa cells were co-treated with 17β-estradiol (100 nM) and Cu(FL5) (1 μM).
To investigate further the origin of fluorescence detected by Cu(FL5), iNOS was silenced in Raw 264.7 cells by short hairpin RNA (shRNA)-induced RNA interference (RNAi) (FIG. 6b).
Raw 264.7, SK-N-SH, and HeLa cells were purchased from the American Type Culture Collection (ATCC). […] The expression of iNOS in Raw 264.7 cells was analyzed by Western blot on the extracts of cells stimulated by LPS and INF-γ. The protein was silenced by short hairpin RNA-induced RNAi and the resulting cell lines were used in fluorescence imaging by Cu(FL5).

iNOS = iNOS expression in Raw 264.7 cells (Western blot); assay type: cell-based, murine; conditions: Raw 264.7 cells upon introduction of LPS and IFN-γ
Procedure: (§1) Raw 264.7, SK-N-SH, and HeLa cells were purchased from the American Type Culture Collection (ATCC). All three cell lines were maintained in Dulbecco's modified Eagles' media (DMEM) (GibcoBRL) containing 10% (v/v) heat-inactivated fetal bovine serum (FBS) (HyClone), 1 mM sodium pyruvate (Sigma), 100 units/ml penicillin, 100 μg/ml streptomycin (Invitrogen), and 0.1 mM nonessential amino acid solution for minimal essential medium (Sigma). All cells were grown at 37° C. in a humidified atmosphere of 10% CO2. A nitrite assay was performed with Griess reagents (Promega) on Raw 264.7 cells grown in DMEM free of phenol red. Calcium sensor fluo-4 AM was purchased from Invitrogen. MTT [3-(4,5-dimethylthiazol-2-yl)-2,5-diphenyltetrazolium bromide] (Sigma-Aldrich) assay was described in Supplementary information. The expression of iNOS in Raw 264.7 cells was analyzed by Western blot on the extracts of cells stimulated by LPS and INF-γ. The protein was silenced by short hairpin RNA-induced RNAi and the resulting cell lines were used in fluorescence imaging by Cu(FL5).

[2] = Cell membrane passage in live cell studies; assay type: cell-based
From the text: In summary, we have synthesized a Cu(II)-based fluorescein compound Cu(FL5) for imaging NO based on redox chemistry. Reduction of Cu(FL5) by NO to Cu(I) with nitrosation of the FL5 ligand is accompanied by bright visible light emission. […] Studies of Cu(FL5) in pH 7.0 aqueous buffered solutions indicate that the NO response is direct, rapid, and specific.

[3] = Specificity for NO over other reactive nitrogen and oxygen species; conditions: 100 equivalents of O2−, ClO−, H2O2, HNO, NO2−, NO3−, ONOO−, 2 h, pH 7.0 buffer, 1 μM
Procedure: FIG. 6 illustrates the specificity of Cu(FL5) for NO over other reactive nitrogen and oxygen species. The fluorescence response of Cu(FL5) was determined after addition of 100 equivalents of O2^−, ClO^−, H2O2, HNO (Angeli's salt Na2N2O3), NO2^−, NO3^−, and ONOO^− for 2 h in buffered aqueous solution (50 mM PIPES, pH 7.0, 100 mM KCl). The excitation wavelength was 503 nm. All data (F) are normalized with respect to the emission of Cu(FL5) (F(Cu(FL5))). [Cu(FL5)]=1 μM. Error bars indicate s.d.
(§2) The fluorescence of a 1 μM FL5 solution was diminished by 18±3% upon introduction of an equimolar quantity of CuCl2 at 37° C. Addition of excess NO to a buffered aqueous Cu(FL5) solution led to an immediate 11.2±1.5-fold increase in fluorescence (FIG. 5). […] The lower detection limit for NO is 5 nM.

Raw 264.7 cells = experiment: MTT cytotoxicity assay on Raw 264.7 cells; assay type: cell-based, murine; conditions: Cu(FL5) 1 μM, 5 days
Procedure: as §1

SK-N-SH cells = experiment: MTT cytotoxicity assay on SK-N-SH cells; assay type: cell-based, human
Procedure: To test the toxicity of Cu(FL5), a MTT [3-(4,5-dimethylthiazol-2-yl)-2,5-diphenyltetrazolium bromide] assay was performed on SK-N-SH cells after 5 days of incubation with Cu(FL5) (1 μM).
Thus, both Cu(FL5) and FL5−NO are not toxic under the conditions used here for bioimaging of NO.
as §1

[4] = Cu(II) binding of FL5 (UV-vis titration with CuCl2; fluorescence quenching); conditions: 1 μM FL5 solution, 37° C.
Procedure: Derivatized fluorescein molecules are excellent biosensors because they excite and emit in a region of the visible spectrum that is relatively free of interference. We prepared the fluorescein-based ligand FL5 (FIG. 4) by reacting 7′-chloro-4′-fluorescein-carboxaldehyde with 8-aminoquinaldine. We generated the Cu(II) fluorescein-based NO probe Cu(FL5) (FIG. 4) in situ reacting FL5 (prepared as described below) awith CuCl2 in a 1:1 ratio in buffered aqueous solution (50 mM PIPES, pH 7.0, 100 mM KCl). […] A Job's plot was constructed to evaluate the nature of the FL5:Cu(II) complex by following the UV-vis absorption spectral change at 512 nm in pH 7.0 buffered solution. A break at 0.5 indicated the formation of a 1:1 complex.
as §2

Cc1ccc2cccc(NCc3c([O][Cu][Cl])ccc4c(-c5ccccc5C(=O)O)c5cc(Cl)c(=O)cc-5oc34)c2n1 [Cu(FL5)]
fluorescence response in co-culture [1]: fluorescence increase was observed exclusively in the SK-N-SH cells
fluorescence in HeLa cells co-treated with 17β-estradiol (HeLa cells; 17β-estradiol (100 nM), Cu(FL5) (1 μM)): absence of turn-on emission
turn-on fluorescence emission in HeLa cells treated with LPS and IFN-γ (HeLa cells; LPS and IFN-γ prior to Cu(FL5) incubation): not observed
effect on expression of iNOS (iNOS): does not affect the expression of iNOS
passage through cell membranes [2]: readily passes through cell membranes
fluorescence response specificity for NO over other reactive species [3]: detects NO specifically
survival of Raw 264.7 cells (MTT) (Raw 264.7 cells): 90±3%
viable cells (MTT), cell line not specified (SK-N-SH cells; 1 μM Cu(FL5), after 5 days): > 80%
survival of SK-N-SH cells (MTT) (SK-N-SH cells; 5 days of incubation, Cu(FL5) 1 μM): 80±9%

Cc1ccc2cccc(NCc3c(O)ccc4c(-c5ccccc5C(=O)O)c5cc(Cl)c(=O)cc-5oc34)c2n1 [FL5, 2-{2-chloro-6-hydroxy-5-[(2-methyl-quinolin-8-ylamino)-methyl]-3-oxo-3H-xanthen-9-yl}-benzoic acid]
fluorescence diminished upon introduction of equimolar CuCl2 [4]: 18±3%
